Laboratory results reported in patent US20020155164A1, “System and method for the prevention of infections in human patients using nitric oxide” (priority 2001, published 2002).

Test system: bacteria
Test: Tests performed in vitro on bacteria
Format: cell-based
Details: many types of bacteria
Description: The inventors of the instant invention have investigated NO for its use as a sterilizing agent in the prevention and treatment of infections. […] PCT International Application No. PCT/CA99/01123, a published Jun. 2, 2000, discloses a method and an apparatus for the treatment of human respiratory infections by NO inhalation.

SMILES: [N]=O [NO, nitric oxide]
- effect on growth / killing of bacteria: interfere with the growth of and/or kill many types of bacteria
